Results as given in US20240315283A1, “ISOFUCOSTEROL A KEY NUTRIENT FOR PHYTOSTEROL EATING ANIMALS SUCH AS POLLEN EATING AND ALGAE-EATING AND PLANKTON EATING ORGANISMS” (APIX BIOSCIENCES, priority 2021, published 2024).

How the values were obtained:
Honeybees [1] = experiment: Long term Apidea experiment with bees fed a multiplicity of sterols; format: in vivo, honeybee; details: diet with isofucosterol and multiplicity of sterols; cycles of 21 days
Method: Honeybees: Fully functional insulated styrofoam Apidea™ nucs comprised 3-5 mini frames populated with adult workers and 1 mated laying queen bee were populated with 300-400 ml of young adult workers (˜N<1,000 bees of mixed ages).
Each treatment was tested with 3-6 colonies, each colony was fed ad libitum with the solid diet on the top feeder fitted with a mesh floor, and the quantity consumed was assessed at every feeding. The number of capped brood cells was assessed every 12 days. The number of bee seams was recorded during each inspection. If the colony reaches maximal size for the Apidea box, a super is added. Sugar syrup (34%) and water was provided in feeders inside the tent to prevent carbohydrate starvation and to stimulate foraging activity.
In Example 4A, bees were fed with a diet containing 15-30% protein, 4-12% fat, 1% vitamins/minerals and >40% carbohydrates (Diet 1). […]
FIG. 4—results of experiment 4A: Mean area of sealed brood (cm2) assessed every 12 days over a 15-week period. […]

adult worker honeybees = experiment: Survival of cohorts of bees on diets containing isofucosterol; format: in vivo, honeybee; details: pollen-free diet with isofucosterol vs isofucosterol-free diet
Method: Newly emerged adult worker honeybees fed with a diet treatment and ad libitum access to water. The treatment diet contained the isofucosterol. Newly emerged bees were removed from the brood frame and cohorts of 30 bees per replicate were housed in plastic rearing cages. In all experiments, 10 cohorts of ˜30 bees each were used for each treatment group. In all diet's carbohydrate was maintained at 60% using sucrose and fat was maintained at 8%. Consumption of each diet was measured every day over the course of the experiment. The number of bees alive in the box was counted each day for 14 days.
Example 2 represents the survival of cohorts of bees confined to feed on diets containing specific concentrations of isofucosterol (0%, 0.5% and 1% weight of diet), as shown in FIG. 2.

Honeybees [2] = experiment: Brood production in APIDEA nuc colonies; format: in vivo, honeybee; details: pollen-free diet with isofucosterol vs isofucosterol-free diet, increasing concentration
Method: Honeybees: Fully functional insulated styrofoam APIDEA nucs comprised 5 mini frames populated with adult workers and 1 mated laying queen bee were populated with 300-400 ml of young adult workers (˜N<1,000 bees of mixed ages).
Each treatment was tested with 3-6 colonies; each colony was fed with a 60-100 g patty (solid diet) on the top feeder fitted with a mesh floor. Diet was fed on the first day and again on day 6; the quantity consumed was measured on day 6 and day 15. If no larvae or eggs/queen are observed by day 6 then the experiment is terminated. The number of capped brood cells was counted on day 15. The number of bee seams was estimated during each inspection. Sugar syrup (34%) and water was provided in feeders inside the tent to prevent carbohydrate starvation and to stimulate foraging activity.
In Example 3, bees were fed with a diet containing 10-18% protein, 6% fat, 1% vitamins/minerals and >75% carbohydrates.
As the concentration of isofucosterol increased, the amount of brood produced in each colony increased (N>3 colonies/treatment). The pupae, and the number of new adults was counted over the entire 10-week period.

[3] = tested on: adult worker honeybees (Apis mellifera) or adult worker bumblebees (Bombus terrestris); experiment: Two-choice preference assay, diet with or without isofucosterol; format: in vivo; details: choice of diet with or without isofucosterol, 5 days, FIG. 1
Method: One treatment diet contained the isofucosterol and the other contained no sterol. Newly emerged bees were removed from the brood frame and cohorts of 30 bees per replicate were housed in plastic rearing cages. In all experiments, 10 cohorts of ˜30 bees each were used for each treatment group. […] Consumption of each diet was measured every 24 h for 5 days. Preference index was calculated as (amount of treatment consumed−amount of control consumed)/(total amount of food consumed). In Example 1, cohorts of bees were given a choice of diet with or without isofucosterol.

Black soldier flies = experiment: Black soldier fly feeding experiments; format: in vivo, Hermetia illucens
Method: Adult survival and number of egg masses laid from a population fed with a pollen substitute diet (as specified in US2019/0090507 to Apix Biosciences) was measured daily using the methods of rearing described in Thinn and Kainoh 2022. JARQ 56 (2), 211-217 (2022). […] Black soldier fly (BSF) larvae were fed with a diet containing 22% protein, 4% fat as described in Hogsette 1992. J. Econ. Entomol. 85(6): 2291-2294 until ecclosion. Sterols were sourced as pure compounds added directly to diet to a total quantity of 0.1%. […] J. Entomol. 118: 297-306, 2021. […] Sterols were added to diet. Measurement of sterols in tissues was performed after saponification of BSF tissues using GC-MS as described in Boukid et al. 2022. Insects 12, 672.

C/C=C(/CC[C@@H](C)[C@H]1CC[C@H]2[C@@H]3CC=C4C[C@@H](O)CC[C@]4(C)[C@H]3CC[C@]12C)C(C)C [isofucosterol, Isofucosterol]
brood production / brood development supported (Honeybees [1]): more than 4 cycles
survival of worker bees (adult worker honeybees): increases
bee brood production (Honeybees [2]): increased
bee brood production (Honeybees [2]; listed as Isofucosterol): increases
isofucosterol concentration in the diet that bees preferred to consume [3]: at least 0.05%
egg laying and egg hatching performance and adult longevity (Black soldier flies; cultivated Black Soldier Fly or beetle adults fed diet containing isofucosterol): improves
performance of adult and larval BSF (Black soldier flies; isofucosterol delivered through a pollen-free diet): increases the performance
